# According to PMC6545111 (Journal of medicinal chemistry, 2018):
# Values joined by “and” are separate entries in the source; they are usually repeats but may differ in a detail not shown here. Identical values can stand only once. Like-named read-outs stand apart in the source and are kept apart here.
# Key:
# [1] = tested on: MV4;11, MOLM-13 and RS4;11 acute leukemia cell lines; assay: Cell growth inhibition, statements covering the three leukemia cell lines; assay type: cell-based, human
# [2] = tested on: BRD2, BRD3, BRD4, c-Myc and cleaved PARP in RS4;11 xenograft tumors; assay: Pharmacodynamic analysis in RS4; assay type: in vivo, SCID mice
# RS4;11 cells = assay: Apoptosis by flow cytometry; assay type: cell-based, human
# [3] = tested on: cleaved PARP and cleaved Caspase 3 in MV4;11 cells; assay: Western blotting of cleaved PARP / caspase 3 in MV4; assay type: cell-based, human; settings: MV4;11 cell line
# [4] = tested on: BRD2, BRD3 and BRD4 proteins in MV4;11 cells; assay: Western blotting of BET proteins in MV4; assay type: cell-based; settings: 3 h treatment
# RS4;11 xenograft tumors = assay: Anti-tumor efficacy, RS4; assay type: in vivo, SCID mice
# [5] = tested on: cleaved PARP and cleaved Caspase 3 in RS4;11 cells; assay: Western blotting of cleaved PARP / caspase 3 in RS4; assay type: cell-based, human; settings: RS4;11 cell line, 24 h treatment
# GSPT1 protein = GSPT1 protein (Homo sapiens, UniProt P15170); assay: Western blotting of GSPT1 in MV4; assay type: cell-based; settings: MV4;11 and RS4;11 cells
# MOLM-13 cells = assay: Apoptosis by flow cytometry; assay type: cell-based, human; settings: MOLM-13, as low as 1 nM, 24 h treatment
# MV4;11 xenograft tumors = settings: 3 times per week for 2 weeks, intravenous
# [6] = tested on: c-Myc protein in MV4;11 cells; assay: Western blotting of c-Myc in MV4; assay type: cell-based, human; settings: MV4;11 cell line
# [7] = tested on: BRD2, BRD3 and BRD4 proteins in RS4;11 cells; settings: 3 h treatment
# [8] = Tissue distribution in mice bearing RS4; assay type: in vivo, SCID mice; settings: IV, 5mg/kg; for Concentration of QCA570 in Heart / Concentration of QCA570 in Intestine / Concentration of QCA570 in Kidney / Concentration of QCA570 in Liver / Concentration of QCA570 in Lung / Concentration of QCA570 in Tumor / Concentration of QCA570 in plasma: individual mice
# MV4;11 cells = assay: Apoptosis by flow cytometry; assay type: cell-based, human; settings: MV4;11, as low as 1 nM, 24 h treatment
# [9] = tested on: c-Myc protein in RS4;11 cells; assay: Western blotting of c-Myc in RS4; assay type: cell-based, human; settings: RS4;11 cell line
# [10] = RS4;11 xenograft, all treatment groups
# GSPT1 protein, sequence (P15170 whole entry): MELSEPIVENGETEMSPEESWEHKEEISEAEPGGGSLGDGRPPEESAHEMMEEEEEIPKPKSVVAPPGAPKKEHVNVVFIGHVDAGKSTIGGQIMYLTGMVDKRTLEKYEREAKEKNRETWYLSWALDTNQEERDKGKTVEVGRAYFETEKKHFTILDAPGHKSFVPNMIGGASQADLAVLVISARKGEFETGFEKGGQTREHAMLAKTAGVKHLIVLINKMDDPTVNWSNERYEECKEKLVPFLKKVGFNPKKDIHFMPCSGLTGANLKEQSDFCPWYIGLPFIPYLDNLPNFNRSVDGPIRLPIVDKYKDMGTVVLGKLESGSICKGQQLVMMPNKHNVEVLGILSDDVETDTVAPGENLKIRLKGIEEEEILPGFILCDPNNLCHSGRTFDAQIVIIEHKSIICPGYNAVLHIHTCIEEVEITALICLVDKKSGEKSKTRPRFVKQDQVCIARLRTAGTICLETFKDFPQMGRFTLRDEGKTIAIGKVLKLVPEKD
substance,measurement,setting,value
"3-(4-(5-(4-((3-Benzyl-9-methyl-4H,6H-thieno[2,3-e][1,2,4]triazolo[3,4-c][1,4]oxazepin-2-yl)ethynyl)-1H-pyrazol-1-yl)pent-1-yn-1-yl)-1-oxoisoindolin-2-yl)piperidine-2,6-dione [Compound 35]",times more potent than ZBC260 in cell growth inhibition,[1]; MV4;11 and MOLM-13 cell lines,> 10 times
same,times more potent than ARV-771 in cell growth inhibition,[1]; each of the three cell lines,> 10 times
same,times more potent than ARV-825 in cell growth inhibition,[1]; each of the three cell lines,> 10 times
same,times more potent than dBET1 in cell growth inhibition,[1]; each of the three cell lines,"> 1,000 times"
same,"levels of BRD2, BRD3 and BRD4 proteins in tumor tissue","[2]; single intravenous dose 1 and 5 mg/kg, 1 h and 6 h time-points",dramatically reduces
same,c-Myc protein levels in tumor tissue,"[2]; single intravenous dose 1 and 5 mg/kg, all time points (1, 6, 24 h)",reduces c-Myc protein levels dramatically
same,cleavage of PARP in tumor tissue,"[2]; single intravenous dose, 6 h and 24 h time-points",very effective in inducing cleavage of PARP
same,"reduction of BRD4 protein level at 24 h, 5 mg/kg compared with 1 mg/kg","[2]; single intravenous dose, 24 h time-point",more effective
same,apoptosis induction,"RS4;11 cells; RS4;11, 0.1 nM, 24 h treatment",minimal effect
same,cells undergoing apoptosis,"RS4;11 cells; RS4;11, 0.1 nM, 48 h treatment",> 40%
same,cells undergoing apoptosis,"RS4;11 cells; RS4;11, 0.3–10 nM, 24 h treatment",15–30%
same,lowest concentration inducing caspase 3 activation,[3],≤ 0.3 nM
same,lowest concentration inducing robust cleavage of PARP,[3]; 24 h treatment,0.1 to 0.3 nM
same,concentration effective in reducing BRD2 protein level,[4],30 to 100 pM
same,lowest concentration very effective in reducing BRD3 and BRD4 protein levels,[4],≤ 10 pM
same,tumor response,"RS4;11 xenograft tumors; RS4;11 xenograft, 5 mg/kg weekly",complete tumor growth inhibition but not tumor regression
same,tumor response,"RS4;11 xenograft tumors; RS4;11 xenograft, 1, 2.5 and 5 mg/kg, 3 times per week for 3 weeks",complete and long-lasting tumor regression
same,animal weight loss,RS4;11 xenograft tumors; [10],minimal animal weight loss
same,signs of toxicity,RS4;11 xenograft tumors; [10],no other signs of toxicity
same,caspase 3 cleavage,[5],not detected
same,lowest concentration inducing robust cleavage of PARP,[5],0.1 to 0.3 nM
same,effect on GSPT1 protein,GSPT1 protein,no effect
same,cells undergoing apoptosis,MOLM-13 cells,> 60%
same,tumor response,MV4;11 xenograft tumors; 1 mg/kg,complete tumor regression
same,tumor response,MV4;11 xenograft tumors; 5 mg/kg,complete and long-lasting tumor regression
same,lowest concentration very effective in reducing c-Myc protein levels,[6],≤ 30 pM
same,"degradation of BRD2, BRD3 and BRD4 proteins",[7]; 0.5 nM,complete degradation
same,concentration effective in reducing BRD2 protein level,[7],30 to 100 pM
same,lowest concentration very effective in reducing BRD3 and BRD4 protein levels,[7],≤ 10 pM
same,Concentration of QCA570 in Heart,"[8]; 1 h, listed as QCA570, 5 mg/kg",373 ng/g and 288 ng/g
same,Concentration of QCA570 in Intestine,"[8]; 1 h, listed as QCA570, 5 mg/kg",1283 ng/g and 1009 ng/g
same,Concentration of QCA570 in Kidney,"[8]; 1 h, listed as QCA570, 5 mg/kg",649 ng/g and 675 ng/g
same,Concentration of QCA570 in Liver,"[8]; 1 h, listed as QCA570, 5 mg/kg",1227 ng/g and 1720 ng/g
same,Concentration of QCA570 in Lung,"[8]; 1 h, listed as QCA570, 5 mg/kg",1041 ng/g and 696 ng/g
same,Concentration of QCA570 in Tumor,"[8]; 1 h, listed as QCA570, 5 mg/kg",642 ng/g and 405 ng/g
same,Concentration of QCA570 in plasma,"[8]; 1 h, listed as QCA570, 5 mg/kg",1575 ng/mL and 2360 ng/mL
same,Concentration of QCA570 in Heart,"[8]; 3 h, listed as QCA570, 5 mg/kg",17 ng/g and 22 ng/g
same,Concentration of QCA570 in Intestine,"[8]; 3 h, listed as QCA570, 5 mg/kg",50 ng/g and 92 ng/g
same,Concentration of QCA570 in Kidney,"[8]; 3 h, listed as QCA570, 5 mg/kg",40 ng/g and 49 ng/g
same,Concentration of QCA570 in Liver,"[8]; 3 h, listed as QCA570, 5 mg/kg",57 ng/g and 209 ng/g
same,Concentration of QCA570 in Lung,"[8]; 3 h, listed as QCA570, 5 mg/kg",35 ng/g and 89 ng/g
same,Concentration of QCA570 in Tumor,"[8]; 3 h, listed as QCA570, 5 mg/kg",177 ng/g and 199 ng/g
same,Concentration of QCA570 in plasma,"[8]; 3 h, listed as QCA570, 5 mg/kg",47 ng/mL and 263 ng/mL
same,Concentration of QCA570 in Heart,[8]; 6 h,BLQ
same,Concentration of QCA570 in Intestine,[8]; 6 h,BLQ
same,Concentration of QCA570 in Kidney,[8]; 6 h,BLQ
same,Concentration of QCA570 in Liver,[8]; 6 h,BLQ
same,Concentration of QCA570 in Lung,[8]; 6 h,BLQ
same,Concentration of QCA570 in plasma,[8]; 6 h,BLQ
same,Concentration of QCA570 in Tumor,"[8]; 6 h, listed as QCA570, 5 mg/kg",87.9 ng/g and 68.7 ng/g
same,"Concentration of QCA570 in Heart, mean",[8]; Mean (1h),331 ng/g
same,"Concentration of QCA570 in Intestine, mean",[8]; Mean (1h),1146 ng/g
same,"Concentration of QCA570 in Kidney, mean",[8]; Mean (1h),662 ng/g
same,"Concentration of QCA570 in Liver, mean",[8]; Mean (1h),1473 ng/g
same,"Concentration of QCA570 in Lung, mean",[8]; Mean (1h),868 ng/g
same,"Concentration of QCA570 in Tumor, mean",[8]; Mean (1h),524 ng/g
same,"Concentration of QCA570 in plasma, mean",[8]; Mean (1h),1968 ng/mL
same,"Concentration of QCA570 in Heart, mean",[8]; Mean (3h),19 ng/g
same,"Concentration of QCA570 in Intestine, mean",[8]; Mean (3h),71 ng/g
same,"Concentration of QCA570 in Kidney, mean",[8]; Mean (3h),44 ng/g
same,"Concentration of QCA570 in Liver, mean",[8]; Mean (3h),133 ng/g
same,"Concentration of QCA570 in Lung, mean",[8]; Mean (3h),62 ng/g
same,"Concentration of QCA570 in Tumor, mean",[8]; Mean (3h),188 ng/g
same,"Concentration of QCA570 in plasma, mean",[8]; Mean (3h),155 ng/mL
same,"Concentration of QCA570 in Heart, mean",[8]; Mean (6 h),BLQ
same,"Concentration of QCA570 in Intestine, mean",[8]; Mean (6 h),BLQ
same,"Concentration of QCA570 in Kidney, mean",[8]; Mean (6 h),BLQ
same,"Concentration of QCA570 in Liver, mean",[8]; Mean (6 h),BLQ
same,"Concentration of QCA570 in Lung, mean",[8]; Mean (6 h),BLQ
same,"Concentration of QCA570 in Tumor, mean",[8]; Mean (6 h),78 ng/g
same,"Concentration of QCA570 in plasma, mean",[8]; Mean (6 h),BLQ
same,cells undergoing apoptosis,MV4;11 cells,> 60%
same,lowest concentration very effective in reducing c-Myc protein levels,[9],≤ 10 pM
